Key:
[1] = tested on: S. aureus; experiment: ATP release bioluminescence assay; format: cell-based, Staphylococcus aureus; settings: followed over 30 min after exposure, CTAB (1%) positive control
Experimental: Solutions of the test compound 7e were prepared in DMSO at various concentrations. A suspension of growing S. aureus to be studied in Muller-Hinton II broth was prepared and incubated at 37 °C. An aliquot (90 µL) of this suspension was added to 10 µL of test compound solution and vortexed for 10 s. Luciferin–luciferase reagent (Yelen, France; 50 µL) was immediately added to this mixture, and luminescent signal quantified with an Infinite M200 microplate reader (Tecan) over a 30 min period; ATP concentration was quantified using internal sample addition. A similar procedure was used for the CTAB positive control.

[2] = tested on: Escherichia coli ATCC 25922; experiment: Antimicrobial MIC assay (CO-ADD) against E. coli; format: cell-based; settings: Escherichia coli, ATCC25922, read-out: MIC E.c.
Description: (§1) Antimicrobial evaluation against S. aureus (MRSA) (ATCC 43300), E. coli (ATCC 25922), K. pneumoniae (ATCC 700603), A. baumannii (ATCC 19606), C. albicans (ATCC 90028), and C. neoformans (ATCC 208821) was undertaken at the Community for Open Antimicrobial Drug Discovery at The University of Queensland (Australia) according to their standard protocols as reported previously.

[3] = Cytotoxicity assay on HEK293; format: cell-based, human; settings: human, HEK293 human embryonic kidney cells; concentration at 50% cytotoxicity on HEK293; mean (n = 2); top dose tested 32 μg/mL
Experimental: (§2) Cytotoxicity assays were conducted using the protocols previously reported.

[4] = tested on: human red blood cells; experiment: Hemolytic assay; format: cell-based; settings: concentration at 10% hemolytic activity on human red blood cells; mean (n = 2); top dose tested 32 μg/mL
Experimental: Hemolytic assays were conducted using the protocols previously reported.

[5] = tested on: Klebsiella pneumoniae ATCC 700603; experiment: Antimicrobial MIC assay (CO-ADD) against K. pneumoniae; format: cell-based; settings: Klebsiella pneumoniae, ATCC700603, read-out: MIC K.p.
Description: as §1

[6] = tested on: E. coli ATCC 25922; experiment: Antibiotic enhancement of erythromycin; format: cell-based, Escherichia coli; settings: erythromycin at 2 μg/mL
Experimental: (§3) Restoring enhancer concentrations were determined with an inoculum of 5 × 10^5 CFU in […] of MH broth containing two-fold serial dilutions of each derivative in the presence of either doxycycline or erythromycin at 2 μg/mL. […] These measurements were independently repeated in triplicate.

[7] = tested on: Pseudomonas aeruginosa ATCC 27853; experiment: Antimicrobial MIC assay (CO-ADD) against P. aeruginosa; format: cell-based; settings: Pseudomonas aeruginosa, ATCC27853, read-out: MIC P.a.
[8] = tested on: Staphylococcus aureus ATCC 43300 (MRSA); experiment: Antimicrobial MIC assay (CO-ADD) against S. aureus MRSA; format: cell-based; settings: Staphylococcus aureus, read-out: MIC S.a.
Description: as §1

[9] = tested on: Acinetobacter baumannii ATCC 19606; experiment: Antimicrobial MIC assay (CO-ADD) against A. baumannii; format: cell-based; settings: Acinetobacter baumannii, ATCC19606, read-out: MIC A.b.
Description: as §1

[10] = tested on: Candida albicans ATCC 90028; experiment: Antimicrobial MIC assay (CO-ADD) against C. albicans; format: cell-based; settings: Candida albicans, ATCC90028, read-out: MIC C.a., Candida albicans ATCC 90028; mean (n = 2)
Description: as §1

[11] = tested on: P. aeruginosa ATCC 27853; experiment: Antibiotic enhancement of doxycycline; format: cell-based, Pseudomonas aeruginosa; settings: doxycycline at 2 μg/mL
Experimental: as §3

[12] = tested on: Cryptococcus neoformans ATCC 208821; experiment: Antimicrobial MIC assay (CO-ADD) against C. neoformans; format: cell-based; settings: Cryptococcus neoformans, ATCC208821, read-out: MIC C.n.
Description: as §1

[13] = tested on: HEK293 human embryonic kidney cells; experiment: Cytotoxicity assay on HEK293; format: cell-based; settings: concentration at 50% cytotoxicity on HEK293; mean (n = 2); top dose tested 32 μg/mL
Experimental: as §2

| SMILES | ATP release (extracellular ATP, bioluminescence) [1] | MIC [2] [µM] | IC50 [3] [µM] | Hemolysis (HC10) [4] [µM] | MIC [5] [µM] | enhancement of antibiotic activity of erythromycin [6] | MIC [7] [µM] | MIC [8] [µM] | MIC [9] [µM] | MIC [10] [µM] | enhancement of antibiotic activity of doxycycline [11] | MIC [12] [µM] | Cytotoxicity (IC50) [13] |
| --- | --- | --- | --- | --- | --- | --- | --- | --- | --- | --- | --- | --- | --- |
| CCCCCCCCCCCCCCCC[N+](C)(C)C [CTAB, cetyltrimethylammonium bromide, reference compound] | dramatically disrupted the S. aureus membrane after 2 min | – | – | – | – | – | – | – | – | – | – | – | – |
| C[C@H](CCC(=O)NCCCNCCCCNCCCNC(=O)CC[C@@H](C)[C@H]1CC[C@H]2[C@@H]3C[C@H](O)[C@@H]4C[C@H](O)CC[C@]4(C)[C@H]3CC[C@]12C)[C@H]1CC[C@H]2[C@@H]3C[C@H](O)[C@@H]4C[C@H](O)CC[C@]4(C)[C@H]3CC[C@]12C.O=C(O)C(F)(F)F.O=C(O)C(F)(F)F [Compound 7a, N^1,N^4-Bis(3-((R)-4-((3R,5R,6S,8S,9S,10R,13R,14S,17R)-3,6-dihydroxy-10,13-dimethylhexadecahydro-1H-cyclopenta[a]phenanthren-17-yl)pentanamido)propyl)butane-1,4-diaminium 2,2,2-trifluoroacetate] | – | > 27 | > 27 | >27 | > 27 | No enhancement was observed | > 27 | 3.4 | > 27 | 14 | No enhancement was observed | ≤ 0.21 | – |
| C[C@H](CCC(=O)NCCCNCCCCCCCCCCCCNCCCNC(=O)CC[C@@H](C)[C@H]1CC[C@H]2[C@@H]3[C@@H](O)C[C@@H]4C[C@H](O)CC[C@]4(C)[C@H]3CC[C@]12C)[C@H]1CC[C@H]2[C@@H]3[C@@H](O)C[C@@H]4C[C@H](O)CC[C@]4(C)[C@H]3CC[C@]12C.O=C(O)C(F)(F)F.O=C(O)C(F)(F)F [Compound 8f, N^1,N^12-Bis(3-((R)-4-((3R,5S,7S,8R,9S,10S,13R,14S,17R)-3,7-dihydroxy-10,13-dimethylhexadecahydro-1H-cyclopenta[a]phenanthren-17-yl)pentanamido)propyl)dodecane-1,12-diaminium 2,2,2-trifluoroacetate] | – | > 25 | 8.4 | 1.4 | > 25 | – | > 25 | ≤ 0.19 | > 25 | 3.1 | – | ≤ 0.19 | exhibiting cytotoxic properties |
| C[C@H](CCC(=O)NCCCNCCCCCCCNCCCNC(=O)CC[C@@H](C)[C@H]1CC[C@H]2[C@@H]3C[C@H](O)[C@@H]4C[C@H](O)CC[C@]4(C)[C@H]3CC[C@]12C)[C@H]1CC[C@H]2[C@@H]3C[C@H](O)[C@@H]4C[C@H](O)CC[C@]4(C)[C@H]3CC[C@]12C.O=C(O)C(F)(F)F.O=C(O)C(F)(F)F [Compound 7c, N^1,N^7-Bis(3-((R)-4-((3R,5R,6S,8S,9S,10R,13R,14S,17R)-3,6-dihydroxy-10,13-dimethylhexadecahydro-1H-cyclopenta[a]phenanthren-17-yl)pentanamido)propyl)heptane-1,7-diaminium 2,2,2-trifluoroacetate] | – | > 26 | > 26 | >26 | > 26 | No enhancement was observed | > 26 | ≤ 0.21 | > 26 | 13 | No enhancement was observed | ≤ 0.21 | – |
| C[C@H](CCC(=O)NCCCNCCCCCCCCNCCCNC(=O)CC[C@@H](C)[C@H]1CC[C@H]2[C@@H]3C[C@H](O)[C@@H]4C[C@H](O)CC[C@]4(C)[C@H]3CC[C@]12C)[C@H]1CC[C@H]2[C@@H]3C[C@H](O)[C@@H]4C[C@H](O)CC[C@]4(C)[C@H]3CC[C@]12C.O=C(O)C(F)(F)F.O=C(O)C(F)(F)F [Compound 7d, N^1,N^8-Bis(3-((R)-4-((3R,5R,6S,8S,9S,10R,13R,14S,17R)-3,6-dihydroxy-10,13-dimethylhexadecahydro-1H-cyclopenta[a]phenanthren-17-yl)pentanamido)propyl)octane-1,8-diaminium 2,2,2-trifluoroacetate] | – | > 26 | > 26 | >26 | > 26 | No enhancement was observed | > 26 | ≤ 0.2 | > 26 | 13 | No enhancement was observed | ≤ 0.2 | – |
| C[C@H](CCC(=O)NCCCNCCCCNCCCNC(=O)CC[C@@H](C)[C@H]1CC[C@H]2[C@@H]3[C@H](O)C[C@@H]4C[C@H](O)CC[C@]4(C)[C@H]3CC[C@]12C)[C@H]1CC[C@H]2[C@@H]3[C@H](O)C[C@@H]4C[C@H](O)CC[C@]4(C)[C@H]3CC[C@]12C.O=C(O)C(F)(F)F.O=C(O)C(F)(F)F [Compound 9a, N^1,N^4-Bis(3-((R)-4-((3R,5S,7R,8R,9S,10S,13R,14S,17R)-3,7-dihydroxy-10,13-dimethylhexadecahydro-1H-cyclopenta[a]phenanthren-17-yl)pentanamido)propyl)butane-1,4-diaminium 2,2,2-trifluoroacetate] | – | 6.8 | 27 | – | > 27 | – | > 27 | ≤ 0.21 | 27 | ≤ 0.21 | – | ≤ 0.21 | devoid of cytotoxicity |
